Experimental data from PMC8280143, “A novel dephosphorylation targeting chimera selectively promoting tau removal in tauopathies” (Signal Transduction and Targeted Therapy, 2021).
Entries after “also recorded” stand apart in the source; their conditions may differ.

Experiments:
[1] = tested on: brain-blood barrier (BBB); experiment: Brain-blood barrier penetration after tail vein delivery; format: in vivo; details: delivered through mouse tail vein; 10 mM; 2-month male C57BL/6 mice
Experimental: (§1) For 2-month male C57BL/6 mice, 10 mM FITC-labeled or unlabeled-DEPTAC were directly injected through the tail vein or lateral ventricle for the evaluation of BBB-penetrability. For 9-month 3×Tg AD mice or Tau368 (20–30 g body weight), unlabeled-DEPTAC (5 mM, 1 μL for each time) was delivered for once into the lateral ventricle through direct stereotaxic injection, or repeatedly administrated through guiding cannulas (RWD, Shenzhen, China) implanted into the lateral ventricle once every 3 days for a consecutive month to test its dephosphorylation efficiency. Mice were restricted in a custom designed device and stayed awake during drug administration, and sacrificed at 24 h post the single or last DEPTAC administration.

pS396-tau = pS396-tau immunostaining in the DG of Tau368 mice; format: in vivo, mouse; details: DEPTAC for a consecutive month after stopping dox; **p < 0.01, n = 4–5 mice
Experimental: as §1
Cultured neurons were fixed with 4% paraformaldehyde for 15 min. For animal experiments, mice were anesthetized with 1% pentobarbital sodium and intracardially perfused with normal saline followed by 4% paraformaldehyde (in 0.1 M phosphate buffer, pH 7.4). Mice brains were removed, post-fixed in 4% PFA for 12 h, and then cryoprotected in 20% and 30% sucrose solutions in turn. Fifty micrometer brain sections were sliced using a cryostat microtome (Leica). […]

[2] = tested on: microtubules in neurites of hippocampal neurons of Tau368 mice; experiment: Electron microscopy of microtubule bundles; format: in vivo, mouse; details: dox 2 months
Experimental: as §1
Mice were killed by overdose 1% pentobarbital sodium. Hippocampal tissues were isolated on ice, fixed in 2.5% glutaraldehyde at 4 °C for 24 h, washed in 0.1 M phosphate buffer, and post-fixed in 1% osmium acid for 2 h. After washed with phosphate buffer, tissues were dehydrated in increasing gradient of ethanol (30–100%), and incubated in turn with acetone/epoxy (2:1), acetone/epoxy (1:1) and epoxy for 12 h each at 37 °C. Tissues were subsequently embedded in epoxy at 37 °C for 48 h. Sections of 100 nm were sliced using a ultramicrotome (EM UC7, Leica), and stained in a buffer containing 2% uranium acetate and lead citrate at room temperature for 15 min. Images were taken by a transmission electron microscope (Tecnai G^2 20 TWIN, FEI). Bundles density and length were analyzed using ImageJ.

[3] = tested on: human tau in HEK293(hTau) cells; experiment: Tau dephosphorylation and reduction in hTau-expressed HEK293 cells; format: cell-based; details: Supplementary Fig. S4; by contrast to neurons
Experimental: HEK293 cells with stable expression of wild-type full-length human tau (term as HEK293(hTau) cells), were cultured in DMEM (Hyclone, SH30022.01) containing 10% fetal bovine serum (Biological Industries, 04–001-1ACS) and […] G418 (Thermo Fisher Scientific, 10,131,027) under 5% CO2, 37 °C.
Cultured cells or hippocampus tissues were collected on ice, and homogenized with RIPA lysis buffer containing 50 mM Tris-HCl, 100 mM NaCl, 1% Triton X-100, 5 mM EDTA, and 1:100 PMSF, and then centrifuged at 12,000 × g for 20 min. The supernatant was collected for the analysis of soluble proteins. In some experiments, the pellets were further incubated with 8% SDS buffer at 37 °C and then ultrasound for 60 times to reach a complete resuspension for the analysis of insoluble tau. Protein concentration was measured through BCA assays (Thermo Fisher). Equal amount of protein from each sample were separated in SDS-PAGE gels, and then transferred onto nitrocellulose or 0.22 μm polyvinylidene fluoride membranes (Merck Millipore). […] Blots were visualized using ECL luminol reagent (P0018FS, Beyotime), and quantified using ImageJ software.

[4] = tested on: human tau N-terminal 1–368 fragment (hTau-N368); experiment: Hippocampal phosphorylated and total tau in dox-treated Tau368 mice; format: in vivo, mouse; details: 5 mM, i.c.v.
[5] = then 1-month DEPTAC, *p < 0.05, n = 5 mice, 12–23 view fields

(1) YQQYQDATADEQG, originates from the porcine β-tubulin 422–434 for recognizing and binding tau proteins.[5],[6] (2) GSGS, a linker for increasing the flexibility of the peptide.[15] (3) KKVAVVRTPPKSP, for recruiting PP2A-Bα,[16] and (4) RRRRRRRR [DEPTAC, DEPhosphorylation TArgeting Chimera; 38 amino acid residues, C185H314N72O56]
brain-blood barrier (BBB) penetrating efficiency [1]: limited | level of pS396-tau immunostaining in the DG (pS396-tau): ameliorated | density of microtubule bundles [2, 5]: significantly reversed | length of microtubule bundles [2, 5]: significantly reversed | microtubule disassembly in morphology ([2]; then DEPTAC for a consecutive month): efficiently reversed | effectiveness in dephosphorylating and reducing tau in hTau-expressed HEK293 cells [3]: relatively limited effectiveness | time post injection of tau reduction [4]: 12 to 72 h | hippocampal total tau ([4]; for a consecutive month / for once, 12–72 h post injection, n = 3–4): effective in reducing; also recorded: reduced phosphorylated and total tau prominently
